Source: patent US20010039297A1, “COMPOSITIONS AND METHOD FOR IMPROVING INSULIN SENSIVITY AND GLUCOSE METABOLISM IN INDIVIDUALS WITH IMPAIRED FASTING GLUCOSE OR IMPAIRED GLUCOSE TOLERANCE” (Insmed Pharmaceuticals, Inc., priority 1998, published 2001)

What was measured:
Format in all cases: in vivo, human
obese men = experiment: tolbutamide-modified frequently sampled intravenous glucose tolerance test (FSIGTT), insulin sensitivity index by minimal model, clinical study; settings: single oral dose 300-1200 mg, fasted, 2 hours before FSIGTT
Text: The third method of determining insulin sensitivity involves frequently collecting blood samples for glucose and insulin during an intravenous glucose tolerance test, and analyzing the glucose and insulin dynamics using a minimal mathematical model developed by Bergman (Bergman et. al., J. Clin. Invest. 68:1456-1467 (1981)). This test can be modified by the injection of tolbutamide or exogenous insulin to boost the insulin response and improve the correlation with the euglycemic clamp. The FSIGTT provides an accessible way to determine the insulin sensitivity index (S1). The more insulin insensitive a subject is, the lower the calculated S1. As insulin sensitivity is improved, the S1 value is increased—thus a higher S1 value corresponds to greater insulin sensitivity.
A clinical study of D-chiro-inositol was performed in obese men. This was a three phase, double blind, single oral dose crossover study with subjects receiving either D-chiro-inositol (300-1200 mg) or placebo in a randomized crossover fashion. Treatments were administered to subjects in a fasted state 2 hours before the tolbutamide-modified frequently sampled intravenous glucose tolerance test (FSIGTT) began.
The insulin sensitivity index (S1) was derived using the minimal model analysis of plasma glucose and insulin concentrations sampled during a full tolbutamide-modified FSIGTT.

[1] = tested on: obese men and women with abnormal glucose tolerance; experiment: oral glucose tolerance test before and after treatment, clinical study, subjects with abnormal glucose tolerance; settings: 1200 mg/day for 7 to 14 days
Experimental: (§1) Impaired glucose tolerance, as defined by the World Health Organization, is determined by the administration of a standard oral glucose tolerance test (OGTT) (World Health Org., Diabetes Mellitus, Tech. Rep. Ser., no. 727 (1985)). During an OGTT, a measured amount of glucose (75 grams) is given to a fasted individual and blood glucose levels are measured every 30 minutes, usually for 2 or 3 hours. In a individual with normal glucose tolerance, the blood glucose values will rise during the first part of the test and then rapidly return to basal levels. In an IGT individual the post prandial glucose levels will rise above the normal range, producing a 2-hour glucose value of 140-199 mg/dL, and return to basal levels at a slow rate.
(§2) A clinical study utilizing D-chiro-inositol was performed in obese men and women with normal and abnormal glucose tolerance. Eighteen volunteers received D-chiro-inositol (1200 mg/day) for 7 to 14 days. An oral glucose tolerance test was performed at the beginning of the study, prior to treatment, and at the end of the study, after D-chiro-inositol treatment.

[2] = tested on: obese men and women with normal glucose tolerance; experiment: oral glucose tolerance test before and after treatment, clinical study, subjects with normal glucose tolerance; settings: eleven volunteers with normal glucose response; 1200 mg/day for 7 to 14 days
Experimental: as §1, §2

Structure (SMILES): OC1C(O)C(O)C(O)C(O)C1O [D-chiro-inositol]
- mean increase in insulin sensitivity (obese men): 61%
- subjects demonstrating an increase in insulin sensitivity (S1) (obese men; out of 9 subjects): 6 out of 9
- 90 and 120 minute glucose values in OGTT ([1]; abnormal glucose tolerant subjects, p<0.05): statistically significant reduction
- glucose response to the glucose load (OGTT) ([1]; seven subjects with abnormal, elevated glucose response): significantly improved
- glucose values during OGTT [2]: not modified
